Measured values: patent US8552048B2, “Phosphoramidate alkylator prodrugs for the treatment of cancer” (Threshold Pharmaceuticals, Inc., priority 2006, dated 2013)

Legend:
[1] = tested on: IGROV1 human ovarian cancer cells; assay: IGROV1 ovarian cancer xenograft; assay type: in vivo; conditions: CDDP 4 mg/kg and 6 mg/kg i.p. Q7D×2 (both doses)
Method: Forty nude mice were subcutaneously implanted with IGROV1 human ovarian cancer cells (5×10^6 cells/mouse). The tumor volumes were measured twice weekly starting on day 7. On day 8, tumor volumes reached about 97.7±3.9 mm^3. The mice were randomized in 3 treatment groups that were administered the following: CDDP (4 mg/kg, ip, Q7D×2), CDDP (6 mg/kg, i.p. Q7D×2), and TH302 (75 mg/kg, i.v., Q7D×2). A control group of mice were administered saline. […] Forty five days after the first administration of TH302, tumor growth inhibition was 66%. The tumor growth delay (to 300 mm^3) was 19 days.

[2] = tested on: HT29 Human colorectal cancer cells; assay: HT29 xenograft, TH302 in combination with irinotecan; assay type: in vivo, mice; conditions: CPT-11 monotherapy 50 mg/kg i.p. Q7D×3, vs control group
Method: TH302 and irinotecan (CPT-11) were formulated as follows: TH302 (7.5 mg/mL) in saline and CPT-11 (5 mg/mL) in 2% Tween80-saline. The formulations were filtered through a 0.2 μm filter then delivered to animals within one hour after it was made. HT29 Human colorectal cancer cells were prepared in 50% matrigel and 50% RPMI 1640 medium and implanted (3×10^6 cells) in the subcutaneous space of the right flank of 90 mice (0.2 mL/mouse). Tumor volumes reached about 160 mm^3 on day 12 day post implantation. Seventy two animals with similar tumor size were chosen for treatment after randomization. The remaining mice were used as no treatment control.
The mice were administered TH302 intravenously at 75 mg/kg, once per week for 2 weeks (Q7D×2, i.v.) alone, and in combination with CPT-11, administered at, 50 mg/kg, (Q7D×3, intraperitoneally (i.p.)). […] After dosing started, tumor volumes were measured twice per week. […] For the mice administered CPT-11 alone, i.e., those on CPT-11 monotherapy, 41% tumor growth inhibition was observed compared to the control group of mice.

[3] = Pharmacokinetics after repeated administration (Q7D×3) to rats; assay type: in vivo
Method: Each rat received a 30 minute infusion once a week for three weeks (Q7D×3).
Br-IPM being capable of reacting with water and a number of other nucleophiles, for HPLC analysis of Br-IPM, the plasma obtained was frozen and treated with NaF and potassium oxalate.

[4] = Pharmacokinetics after repeated administration (Q7D×3) to dogs; assay type: in vivo
Text: These changes were reversible.

[5] = tested on: PC-3 human prostate tumor; assay: GFP PC3 prostate orthotopic model; assay type: in vivo, mice
[6] = tested on: PC-3 human prostate cells; assay: PC-3 luciferase intracardiac metastasis model (bioluminescence); assay type: in vivo, nude mice
Method: Male nude mice were injected into their left ventricle with PC-3 human prostate cells (3×10^6) transfected with the gene for luciferase. The success of the intracardiac transfections was verified by a bioluminescence scan after the injection. On day 14, the mice with established bone tumor burden were randomized into four treatment groups (N=10): Taxotere® alone (20 mg/kg once a week for three weeks, i.v.), TH302 alone (50 mg/kg daily, 5 days a week for 3 weeks), combination treatment with both agents, and vehicle. Bioluminescence imaging was performed under anesthesia using an IVIS 50 optical imaging system.

[7] = bromo-IPM in rats after TH302 12.5 mg/kg Q7D×3, Day 15
[8] = bromo-IPM in rats after TH302 25 mg/kg Q7D×3, Day 15
[9] = bromo-IPM in rats after TH302 50 mg/kg Q7D×3, Day 15
[10] = bromo-IPM in dogs after TH302 8 mg/kg Q7D×3, Day 15
[11] = bromo-IPM in dogs after TH302 16 mg/kg Q7D×3, Day 15

With N.N.[Cl][Pt][Cl] [CDDP, reference compound] as the compound, how does the “reduction in tumor volume” value [1] read?
The value was “did not show significant reduction in tumor volume”.

For CCc1c2c(nc3ccc(OC(=O)N4CCC(N5CCCCC5)CC4)cc13)-c1cc3c(c(=O)n1C2)COC(=O)[C@]3(O)CC [CPT-11, irinotecan], which tumor growth inhibition [2] is on record?
Its tumor growth inhibition is 41%.

For O=P(O)(NCCBr)NCCBr [Br-IPM, HO—P(═O)(NHCH2CH2Br)2], which AUC [3, 7] is on record?
The AUC was 107 ng·h/mL.

What about the Cmax [3, 7] of the same compound?
The Cmax was 286 ng/mL.

And the half-life [3, 7]?
Its half-life is 8.88 min.

What about the AUC [3, 8] of the same compound?
The AUC was 97 ng·h/mL.

What about the Cmax [3, 8] of the same compound?
The Cmax was 375 ng/mL.

And the half-life [3, 8]?
The half-life was 8.28 min.

What about the AUC [3, 9] of the same compound?
The AUC was 143 ng·h/mL.

What about the Cmax [3, 9] of the same compound?
Its Cmax is 385 ng/mL.

And the half-life [3, 9]?
The half-life was 23 min.

And the “AUC of the active toxin Br-IPM” value ([3]; rats, after TH302 25 mg/kg)?
The value was “about 97 h×ng/mL”.

And the AUClast [4, 10]?
Its AUClast is 21.8 ng·h/mL.

What about the Cmax [4, 10] of the same compound?
Its Cmax is 62.7 ng/mL.

What about the AUClast [4, 11] of the same compound?
Its AUClast is 60.7 ng·h/mL.

And the Cmax [4, 11]?
The Cmax was 146 ng/mL.

What about the half-life [4, 11] of the same compound?
Its half-life is 18.3 min.

What about the “AUC of the active toxin Br-IPM” value ([4]; dogs, after TH302 8 mg/kg) of the same compound?
Its value is “about 21.8 h×ng/mL”.

Which results are given for CC(=O)O[C@@]12CO[C@@H]1C[C@H](O)[C@@]1(C)C(=O)[C@H](O)C3=C(C)[C@@H](OC(=O)[C@H](O)[C@@H](NC(=O)OC(C)(C)C)c4ccccc4)C[C@@](O)([C@@H](OC(=O)c4ccccc4)[C@H]21)C3(C)C [Taxotere®, Docetaxel]?
tumor volume regressed to ([5]; Taxotere 12 mg/kg once a week for two weeks, alone or with TH302): 21±15 mm^3; tumor volume on day 62 ([5]; Taxotere alone or with TH302, P<0.01 combination vs Taxotere alone): 766 mm^3; tumor growth delay (TGD) ([5]; single agent, Taxotere 12 mg/kg once a week for two weeks): 31 days; toxicities (weight loss, deaths) ([6]; TH302 50 mg/kg daily 5 days a week for 3 weeks, Taxotere 20 mg/kg once a week for three weeks i.v., or both): weight loss and a toxicity-related death; bone metastases and soft tissue tumor burden compared to vehicle ([6]; Taxotere alone 20 mg/kg once a week for three weeks, i.v.): significant reduction in bone metastases and soft tissue tumor burden
